Measured values published in BigSolDB 2.1.

FC(F)(F)c1cccnc1Cl
solubility (mole fraction)
Settings | 263.15 K | 268.15 K | 273.15 K | 278.15 K | 283.15 K | 288.15 K | 293.15 K | 298.15 K | 303.15 K
in ethanol | 0.0807 | 0.112 | 0.141 | 0.186 | 0.262 | 0.363 | 0.476 | 0.621 | 0.831
in ethyl acetate | 0.306 | 0.35 | 0.399 | 0.455 | 0.508 | 0.583 | 0.652 | 0.739 | 0.824
in n-butanol | 0.0947 | 0.118 | 0.14 | 0.183 | 0.229 | 0.284 | 0.345 | 0.421 | 0.51
